Measurements taken from ChEMBL document CHEMBL5291721, “A preclinical secondary pharmacology resource illuminates target-adverse drug reaction associations of marketed drugs” (Nat Commun, 2023).

Experiments:
[1] = biological target: T1, Androgen receptor (Homo sapiens, UniProt P10275)
T1 sequence (P10275 whole entry): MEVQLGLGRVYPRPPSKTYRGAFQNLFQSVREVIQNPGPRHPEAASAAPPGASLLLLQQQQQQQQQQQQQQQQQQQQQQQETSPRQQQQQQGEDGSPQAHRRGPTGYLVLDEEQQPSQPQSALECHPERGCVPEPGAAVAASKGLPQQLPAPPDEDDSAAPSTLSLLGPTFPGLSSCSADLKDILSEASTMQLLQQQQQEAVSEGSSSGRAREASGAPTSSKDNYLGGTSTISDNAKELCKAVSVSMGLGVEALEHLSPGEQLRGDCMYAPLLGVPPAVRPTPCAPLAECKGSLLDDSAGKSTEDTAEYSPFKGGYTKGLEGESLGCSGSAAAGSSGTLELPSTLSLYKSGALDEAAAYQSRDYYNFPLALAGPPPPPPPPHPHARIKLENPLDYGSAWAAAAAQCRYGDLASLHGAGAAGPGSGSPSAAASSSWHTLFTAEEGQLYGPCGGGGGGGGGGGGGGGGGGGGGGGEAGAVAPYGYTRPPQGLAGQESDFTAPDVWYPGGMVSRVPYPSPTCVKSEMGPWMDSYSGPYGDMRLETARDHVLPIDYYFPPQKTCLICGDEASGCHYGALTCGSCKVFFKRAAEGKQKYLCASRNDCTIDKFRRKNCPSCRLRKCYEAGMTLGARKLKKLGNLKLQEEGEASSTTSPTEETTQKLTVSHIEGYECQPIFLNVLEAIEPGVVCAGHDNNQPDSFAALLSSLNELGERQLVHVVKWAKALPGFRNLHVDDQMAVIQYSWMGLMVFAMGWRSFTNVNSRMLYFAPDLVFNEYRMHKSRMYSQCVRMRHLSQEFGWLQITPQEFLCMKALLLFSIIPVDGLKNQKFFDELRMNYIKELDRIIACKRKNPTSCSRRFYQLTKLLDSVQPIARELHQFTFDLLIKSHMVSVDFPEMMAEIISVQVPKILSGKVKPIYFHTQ

[2] = biological target: T2, Corticotropin-releasing factor receptor 1 (Homo sapiens, UniProt P34998)
T2 sequence (P34998 whole entry): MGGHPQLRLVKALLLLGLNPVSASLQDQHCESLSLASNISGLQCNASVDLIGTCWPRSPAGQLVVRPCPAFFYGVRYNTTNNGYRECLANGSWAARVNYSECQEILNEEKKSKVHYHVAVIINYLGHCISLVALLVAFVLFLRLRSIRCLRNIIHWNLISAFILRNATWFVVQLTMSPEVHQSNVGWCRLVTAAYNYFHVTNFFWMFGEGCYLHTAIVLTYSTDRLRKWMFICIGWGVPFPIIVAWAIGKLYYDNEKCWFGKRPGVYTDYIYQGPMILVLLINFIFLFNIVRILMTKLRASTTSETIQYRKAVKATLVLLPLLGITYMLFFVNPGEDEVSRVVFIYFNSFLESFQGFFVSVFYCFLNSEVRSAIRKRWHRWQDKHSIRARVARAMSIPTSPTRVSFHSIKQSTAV

[3] = biological target: Estrogen receptor beta (Homo sapiens, UniProt Q92731)
Chain of Estrogen receptor beta (Q92731 whole entry): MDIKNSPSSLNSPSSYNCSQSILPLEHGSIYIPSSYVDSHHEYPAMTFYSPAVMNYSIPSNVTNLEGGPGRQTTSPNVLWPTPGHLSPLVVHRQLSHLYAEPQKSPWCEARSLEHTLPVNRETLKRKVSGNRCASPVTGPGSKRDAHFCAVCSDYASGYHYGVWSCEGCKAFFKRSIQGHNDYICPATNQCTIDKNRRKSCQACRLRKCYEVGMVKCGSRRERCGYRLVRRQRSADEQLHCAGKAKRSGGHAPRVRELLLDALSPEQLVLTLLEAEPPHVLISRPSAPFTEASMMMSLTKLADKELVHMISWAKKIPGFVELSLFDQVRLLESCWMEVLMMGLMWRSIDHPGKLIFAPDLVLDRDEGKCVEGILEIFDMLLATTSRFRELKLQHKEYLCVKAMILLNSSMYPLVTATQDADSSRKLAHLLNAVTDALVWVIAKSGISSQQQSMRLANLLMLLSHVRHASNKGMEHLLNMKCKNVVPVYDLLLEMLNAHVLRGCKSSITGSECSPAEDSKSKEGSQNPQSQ

[4] = biological target: T3, Peroxisome proliferator-activated receptor gamma (Homo sapiens, UniProt P37231); type: functional
T3 sequence (P37231 whole entry): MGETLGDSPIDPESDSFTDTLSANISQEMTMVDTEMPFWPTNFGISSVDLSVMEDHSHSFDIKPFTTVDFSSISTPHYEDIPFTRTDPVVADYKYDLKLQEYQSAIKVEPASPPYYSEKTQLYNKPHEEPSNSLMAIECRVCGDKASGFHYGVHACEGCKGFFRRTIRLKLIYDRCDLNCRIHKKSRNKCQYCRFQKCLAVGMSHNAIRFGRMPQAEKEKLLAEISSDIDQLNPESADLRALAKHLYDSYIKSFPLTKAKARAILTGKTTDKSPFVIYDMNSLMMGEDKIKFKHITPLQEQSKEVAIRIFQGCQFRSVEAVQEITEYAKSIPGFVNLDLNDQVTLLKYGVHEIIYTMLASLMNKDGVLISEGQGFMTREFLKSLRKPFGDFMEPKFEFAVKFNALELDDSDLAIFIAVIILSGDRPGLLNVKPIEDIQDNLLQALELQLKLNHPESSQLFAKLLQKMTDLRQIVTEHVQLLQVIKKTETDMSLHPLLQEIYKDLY

[5] = biological target: Gamma-aminobutyric acid receptor subunit alpha-1/alpha-2/beta-2/gamma-2 (Homo sapiens, UniProt P14867+P18507+P47869+P47870); type: functional, cell-based
Chain of Gamma-aminobutyric acid receptor subunit alpha-1/alpha-2/beta-2/gamma-2 (P14867 whole entry): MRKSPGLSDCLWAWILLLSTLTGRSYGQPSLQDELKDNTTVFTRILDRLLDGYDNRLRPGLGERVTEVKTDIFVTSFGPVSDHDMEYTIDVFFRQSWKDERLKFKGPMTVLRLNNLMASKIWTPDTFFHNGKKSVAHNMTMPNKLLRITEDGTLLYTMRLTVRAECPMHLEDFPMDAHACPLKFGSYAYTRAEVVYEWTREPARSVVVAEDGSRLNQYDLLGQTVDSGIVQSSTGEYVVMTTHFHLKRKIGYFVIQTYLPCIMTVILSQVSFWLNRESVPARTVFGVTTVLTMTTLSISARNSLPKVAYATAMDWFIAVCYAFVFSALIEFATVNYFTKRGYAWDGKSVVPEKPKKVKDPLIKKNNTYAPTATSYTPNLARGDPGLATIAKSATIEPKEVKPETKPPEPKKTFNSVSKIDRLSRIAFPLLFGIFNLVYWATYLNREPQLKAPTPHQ
Chain of Gamma-aminobutyric acid receptor subunit alpha-1/alpha-2/beta-2/gamma-2 (P47870 whole entry): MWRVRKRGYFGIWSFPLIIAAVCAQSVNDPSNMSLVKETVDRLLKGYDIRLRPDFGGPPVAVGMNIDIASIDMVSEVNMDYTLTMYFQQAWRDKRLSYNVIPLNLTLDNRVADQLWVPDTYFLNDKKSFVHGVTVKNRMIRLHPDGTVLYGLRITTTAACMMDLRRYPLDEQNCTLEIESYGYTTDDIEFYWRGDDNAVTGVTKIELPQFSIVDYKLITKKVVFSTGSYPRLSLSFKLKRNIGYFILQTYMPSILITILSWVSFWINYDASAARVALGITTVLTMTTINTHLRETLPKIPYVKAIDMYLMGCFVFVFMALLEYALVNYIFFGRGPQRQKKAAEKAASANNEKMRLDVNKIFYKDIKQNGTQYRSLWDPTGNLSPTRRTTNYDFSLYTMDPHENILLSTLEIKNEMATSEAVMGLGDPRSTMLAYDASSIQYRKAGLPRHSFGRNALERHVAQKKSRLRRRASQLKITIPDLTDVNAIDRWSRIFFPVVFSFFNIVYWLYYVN
Chain of Gamma-aminobutyric acid receptor subunit alpha-1/alpha-2/beta-2/gamma-2 (P18507 whole entry): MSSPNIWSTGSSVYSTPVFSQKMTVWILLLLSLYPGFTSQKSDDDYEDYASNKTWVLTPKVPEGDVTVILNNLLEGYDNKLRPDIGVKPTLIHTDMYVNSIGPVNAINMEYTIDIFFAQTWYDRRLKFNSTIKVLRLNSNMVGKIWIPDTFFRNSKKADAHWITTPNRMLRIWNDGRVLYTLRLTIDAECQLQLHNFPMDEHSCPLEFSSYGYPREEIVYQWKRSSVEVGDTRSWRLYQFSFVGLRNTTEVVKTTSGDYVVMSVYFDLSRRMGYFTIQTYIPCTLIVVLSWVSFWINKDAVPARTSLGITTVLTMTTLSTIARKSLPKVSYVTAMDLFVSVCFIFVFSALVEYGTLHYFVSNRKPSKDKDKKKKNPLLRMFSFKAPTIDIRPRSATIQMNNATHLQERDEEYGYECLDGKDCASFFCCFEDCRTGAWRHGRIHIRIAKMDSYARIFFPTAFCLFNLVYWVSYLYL
Chain of Gamma-aminobutyric acid receptor subunit alpha-1/alpha-2/beta-2/gamma-2 (P47869 whole entry): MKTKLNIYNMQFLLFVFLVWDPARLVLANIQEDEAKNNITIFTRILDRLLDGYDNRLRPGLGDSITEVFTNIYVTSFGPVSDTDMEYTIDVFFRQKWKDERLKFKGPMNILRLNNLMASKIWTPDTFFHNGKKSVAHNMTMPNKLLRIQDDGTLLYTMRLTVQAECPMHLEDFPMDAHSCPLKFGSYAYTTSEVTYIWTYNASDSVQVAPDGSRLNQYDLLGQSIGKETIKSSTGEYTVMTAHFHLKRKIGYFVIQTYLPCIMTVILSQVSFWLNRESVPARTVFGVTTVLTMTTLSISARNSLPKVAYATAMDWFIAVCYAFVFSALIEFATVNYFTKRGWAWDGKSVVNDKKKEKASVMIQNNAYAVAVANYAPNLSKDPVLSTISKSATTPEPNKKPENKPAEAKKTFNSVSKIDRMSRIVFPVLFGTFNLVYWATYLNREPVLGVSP

[6] = biological target: Substance-P receptor (Homo sapiens, UniProt P25103)
Chain of Substance-P receptor (P25103 whole entry): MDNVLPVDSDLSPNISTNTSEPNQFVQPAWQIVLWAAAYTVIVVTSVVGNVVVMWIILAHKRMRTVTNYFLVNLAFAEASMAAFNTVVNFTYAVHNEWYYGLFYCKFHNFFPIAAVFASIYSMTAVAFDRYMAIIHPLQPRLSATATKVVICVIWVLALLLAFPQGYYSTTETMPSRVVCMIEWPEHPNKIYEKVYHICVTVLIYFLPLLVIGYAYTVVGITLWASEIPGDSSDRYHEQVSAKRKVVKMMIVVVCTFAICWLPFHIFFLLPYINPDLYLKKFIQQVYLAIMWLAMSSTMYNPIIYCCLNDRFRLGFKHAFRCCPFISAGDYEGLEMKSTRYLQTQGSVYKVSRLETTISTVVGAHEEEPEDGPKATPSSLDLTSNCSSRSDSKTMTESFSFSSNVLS

[7] = biological target: T4, Alpha-1A adrenergic receptor (Homo sapiens, UniProt P35348)
T4 sequence (P35348 whole entry): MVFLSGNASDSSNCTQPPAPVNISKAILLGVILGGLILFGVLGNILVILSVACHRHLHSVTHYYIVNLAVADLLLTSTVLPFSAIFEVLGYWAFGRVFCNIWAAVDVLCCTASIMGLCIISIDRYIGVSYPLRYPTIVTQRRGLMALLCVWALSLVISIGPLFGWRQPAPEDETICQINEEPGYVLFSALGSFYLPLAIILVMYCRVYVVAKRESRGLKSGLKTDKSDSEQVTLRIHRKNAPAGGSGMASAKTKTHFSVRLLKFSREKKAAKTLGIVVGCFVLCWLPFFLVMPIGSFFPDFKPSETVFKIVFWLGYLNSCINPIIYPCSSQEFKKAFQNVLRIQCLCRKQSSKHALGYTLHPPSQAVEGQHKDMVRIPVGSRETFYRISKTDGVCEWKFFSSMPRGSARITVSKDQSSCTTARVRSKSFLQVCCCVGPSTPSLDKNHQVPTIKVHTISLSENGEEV
Also: assay procedure not described here.

| SMILES | AC50 [1] | AC50 [2] | AC50 [3] | also measured |
| --- | --- | --- | --- | --- |
| CC(C)N(CCNC(=O)CN1CCCC1=O)C(C)C | > 30 µM | – | – | – |
| CC(C)COCC(CN(Cc1ccccc1)c1ccccc1)N1CCCC1 (configuration not stated) [BEPRIDIL] | – | > 30 µM | > 30 µM | AC50 [4]: > 30 µM |
| C/N=C(\NC)NCc1ccccc1 [BETHANIDINE] | – | – | – | AC50 [5]: > 30 µM; AC50 [4]: > 30 µM |
| COc1cc(N2CCC(N3CCN(C)CC3)CC2)ccc1Nc1ncc(Cl)c(Nc2ccccc2P(C)(C)=O)n1 [BRIGATINIB] | > 30 µM | – | – | – |
| CN(C)CCOC(c1ccccc1)c1ccc(Br)cc1 (configuration not stated) [BROMODIPHENHYDRAMINE] | > 30 µM | – | – | – |
| CCC(C)C1(CC)C(=O)NC(=O)NC1=O (configuration not stated) [BUTABARBITAL] | – | – | – | AC50 [4]: > 30 µM |
| O=C(O)c1cn(C2CC2)c2cc(N3CCNCC3)c(F)cc2c1=O [CIPROFLOXACIN] | – | > 30 µM | > 30 µM | AC50 [6]: > 10 µM |
| CC(CCc1ccc(O)cc1)NCCc1ccc(O)c(O)c1 (configuration not stated) [DOBUTAMINE] | – | > 30 µM | > 30 µM | AC50 [6]: > 10 µM; AC50 [7]: 0.0704 µM |
| CCC(=O)O[C@]1(C(=O)SCF)[C@H](C)C[C@H]2[C@@H]3C[C@H](F)C4=CC(=O)C=C[C@]4(C)[C@@]3(F)[C@@H](O)C[C@@]21C [FLUTICASONE PROPIONATE] | – | > 30 µM | – | AC50 [6]: > 10 µM; AC50 [7]: > 10 µM |
| C[C@]12CC[C@@H]3c4ccc(O)cc4C[C@@H](CCCCCCCCC[S+]([O-])CCCC(F)(F)C(F)(F)F)[C@H]3[C@@H]1CC[C@@H]2O (some centres not stated) [FULVESTRANT] | – | – | – | AC50 [5]: > 30 µM; AC50 [4]: > 30 µM |
| Cc1cnc(C(=O)NCCc2ccc(S(=O)(=O)NC(=O)NC3CCCCC3)cc2)cn1 [GLIPIZIDE] | – | > 30 µM | > 30 µM | AC50 [6]: > 10 µM; AC50 [7]: > 10 µM |
| CC(C)NCC(O)c1ccc(O)c(O)c1 (configuration not stated) [ISOPROTERENOL] | – | > 30 µM | > 30 µM | AC50 [6]: > 10 µM |
| Oc1ccc2c(c1)CC[C@H](c1ccccc1)[C@@H]2c1ccc(OCCN2CCCC2)cc1 [LASOFOXIFENE] | – | – | – | AC50 [5]: > 30 µM; AC50 [4]: > 30 µM |
| CN1CCN(C2=Nc3ccccc3Oc3ccc(Cl)cc32)CC1 [LOXAPINE] | – | > 30 µM | > 30 µM | AC50 [6]: > 10 µM; AC50 [7]: 0.169 µM |
| C[C@H](Cc1ccc(O)c(O)c1)[C@@H](C)Cc1ccc(O)c(O)c1 [MASOPROCOL] | – | – | – | AC50 [4]: > 30 µM |
| OC1(c2ccc(Cl)cc2)c2ccccc2C2=NCCN21 (configuration not stated) [MAZINDOL] | – | > 30 µM | > 30 µM | AC50 [6]: > 10 µM; AC50 [7]: > 10 µM |
| CC12CC3CC(C)(C1)CC(N)(C3)C2 [MEMANTINE] | – | > 30 µM | > 30 µM | – |
| CCOC(=O)C1=C(C)NC(C)=C(C(=O)OC)C1c1cccc([N+](=O)[O-])c1 (configuration not stated) [NITRENDIPINE] | – | > 30 µM | > 30 µM | – |
| O=[N+]([O-])c1ccc(O)c2ncccc12 [NITROXOLINE] | – | – | – | AC50 [5]: > 30 µM |
| CCCc1nc(C(C)(C)O)c(C(=O)O)n1Cc1ccc(-c2ccccc2-c2nnn[nH]2)cc1 [OLMESARTAN] | > 30 µM | – | – | – |
| [H]/N=C(/N)N/C(=N/[H])NCCc1ccccc1 [PHENFORMIN] | – | > 30 µM | > 30 µM | – |
| NCC(CC(=O)O)c1ccccc1 (configuration not stated) [PHENIBUT] | > 30 µM | – | – | – |
| CC(N)C(O)c1ccccc1 (configuration not stated) [PHENYLPROPANOLAMINE] | – | > 30 µM | – | AC50 [6]: > 10 µM; AC50 [7]: > 10 µM |
| c1ccc2c(c1)CCc1ccccc1N2C1CN2CCC1CC2 (configuration not stated) [QUINUPRAMINE] | > 30 µM | – | – | – |
| C[C@H](Cc1cc2c(c(C(N)=O)c1)N(CCCO)CC2)NCCOc1ccccc1OCC(F)(F)F [SILODOSIN] | > 30 µM | – | – | – |
| CC1=CCC(C(C)(C)O)CC1O (configuration not stated) [SOBREROL] | > 30 µM | – | – | – |
| CCOC(=O)N1CSC[C@H]1C(=O)O [TELMESTEINE] | > 30 µM | – | – | – |
| CCC(C)C(CC)C(N)=O (configuration not stated) [VALNOCTAMIDE] | – | – | – | AC50 [5]: > 30 µM |
| Cc1cc(C(C)(C)C)cc(C)c1CC1=NCCN1 [XYLOMETAZOLINE] | – | – | – | AC50 [5]: > 30 µM |
